The record followed here is patent US20190263799A1, “1H-IMIDAZO[4,5-B]PYRIDINYL AND 2-OXO-2,3-DIHYDRO-1H-IMIDAZO[4,5-B]PYRIDINYL HETEROCYCLIC BET BROMODOMAIN INHIBITORS” (ZENITH EPIGENETICS LTD., priority 2015, published 2019).

Where two headings read alike, the source gives them in different places. A value given as a limit tells only on which side of the number the result lay.

The target in one test is T1, BRD4(1) (Homo sapiens, UniProt O60885).
T1 construct: N-terminally His-tagged bromodomains (BRD4(1) at 20 nM and BRD4(2) at 100 nM); made in house; host or cells: E. coli BL21(DE3)
The test is described as follows: Inhibition of tetra-acetylated histone H4 binding to individual BET bromodomains (AlphaScreen). Particulars: His-tagged BRD4(1) 20 nM, biotinylated tetra-acetylated histone H4 peptide, 30 min incubation; read-out: FRET activity BRD4(1). How it is done: Proteins were cloned and overexpressed with a N-terminal 6×His tag, then purified by nickel affinity followed by size exclusion chromatography. Briefly, E. coli BL21(DE3) cells were transformed with a recombinant expression vector encoding N-terminally Nickel affinity tagged bromodomains from Brd2, Brd3, Brd4. Cell cultures were incubated at 37° C. with shaking to the appropriate density and induced overnight with IPTG. The supernatant of lysed cells was loaded onto Ni-IDA column for purification. Eluted protein was pooled, concentrated and further purified by size exclusion chromatography. Fractions representing monomeric protein were pooled, concentrated, aliquoted, and frozen at −80° C. for use in subsequent experiments.
Binding of tetra-acetylated histone H4 peptide (Millipore) and BET bromodomains was confirmed by Amplified Luminescent Proximity Homogenous Assay (AlphaScreen). N-terminally His-tagged bromodomains (BRD4(1) at 20 nM and BRD4(2) at 100 nM) and biotinylated tetra-acetylated histone H4 (10-25 nM) were incubated in the presence of nickel chelate acceptor beads and streptavidin donor beads (PerkinAlmer, 6760000K) added to a final concentration of 2 μg/mL under green light in a white 96 well microtiter plate (Greiner). For inhibition assays, serially diluted compounds were added to the reaction mixtures in a 0.1% final concentrations of DMSO. Final buffer concentrations were 50 mM HEPES, 100 mM NaCl and 0.1% BSA buffer, pH 7.4 and optimized to 30 min incubation time. Assay plates were read at 570 nm on a Synergy H4 Plate Reader (Biotek). IC50 values were determined from a dose response curve.
In general terms: Bead proximity is the source of the signal in Alpha formats.

A further test deals with MV4-11 cells. The test is described as follows: Inhibition of cell proliferation in cancer cell lines (MV4-11, CellTiter Aqueous One). The format is cell-based. Conditions: Homo sapiens, read-out: Proliferation activity. As to the method:
MV4-11 cells (CRL-9591) were plated at a density of 5×10^4 cells per well in 96 well flat bottom plates and treated with increasing concentrations of test compound or DMSO (0.1%) in IMDM media containing 10% FBS and penicillin/streptomycin. Triplicate wells were used for each concentration and a well containing only media was used as a control. Plates were incubated at 37° C., 5% CO2 for 72 h before adding 20 μL of the CellTiter Aqueous One Solution (Promega) to each well and incubating at 37° C., 5% CO2 for an additional 3-4 h. The absorbance was read at 490 nm in a spectrophotometer and the percentage of cell titer relative to DMSO-treated cells was calculated after correcting for background by subtracting the blank well's signal. IC50 values were calculated using the GraphPad Prism software.

A further test concerns cMYC. Briefly: Inhibition of cMYC expression in cancer cell lines (MV4-11, real-time PCR). The format is cell-based. Conditions: Homo sapiens, read-out: Myc activity. How it is done:
MV4-11 cells (CRL-9591) were plated at a density of 2.5×10^4 cells per well in 96 well U-bottom plates and treated with increasing concentrations of test compound or DMSO (0.1%) in IMDM media containing 10% FBS and penicillin/streptomycin, and incubated for 3 h at 37° C. Triplicate wells were used for each concentration. Cells were pelleted by centrifugation and harvested using the mRNA Catcher PLUS kit according to manufacturer's instructions. The eluted mRNA isolated was then used in a one-step quantitative real-time PCR reaction, using components of the RNA UltraSense™ One-Step Kit (Life Technologies) together with Applied Biosystems TaqMan® primer-probes for cMYC and Cyclophilin. Real-time PCR plates were run on a ViiA™7 real time PCR machine (Applied Biosystems), data were analyzed, normalizing the Ct values for cMYC to an internal control, prior to determining the fold expression of each sample, relative to the control.
(Real-time PCR tracks product formation cycle by cycle.)

[1] abbreviates: MV4-11 cells, 3 h incubation, cMYC mRNA.

On to `COC(=O)N(C)c1cnc2nc(N3CCCC3)n(Cc3ccccc3)c2c1` [Example 30, Methyl (1-benzyl-2-(pyrrolidin-1-yl)-1H-imidazo[4,5-b]pyridin-6-yl)(methyl) carbamate], for which the IC50 was at most 300 nM at BRD4(1); 300 to 3000 nM with MV4-11 cells (MV4-11, 72 h); 300 to 3000 nM with cMYC (MV4-11, 3 h).
With `CNC(=O)N(C)c1cnc2nc(N3CCCC3)n(Cc3ccccc3)c2c1` [Example 31, 1-(1-Benzyl-2-(pyrrolidin-1-yl)-1H-imidazo[4,5-b]pyridin-6-yl)-1,3-dimethylurea], the IC50 fell in the range of 300 to 3000 nM at BRD4(1); 3000 to 30000 nM with MV4-11 cells (MV4-11 cells, 72 h incubation); 300 to 3000 nM in the test with cMYC (setting [1]).
`CN(C(=O)CO)c1cnc2nc(N3CCCC3)n(Cc3ccccc3)c2c1` [Example 32, N-(1-Benzyl-2-(pyrrolidin-1-yl)-1H-imidazo[4,5-b]pyridin-6-yl)-2-hydroxy-N-methylacetamide]: the IC50 at BRD4(1) was in the range of 300 to 3000 nM; in the test on MV4-11 cells (MV4-11 cells, 72 h incubation), 3000 to 30000 nM; in the test with cMYC (setting [1]), 3000 to 30000 nM.
With `CC(C)C(=O)N(C)c1cnc2nc(N3CCCC3)n(Cc3ccccc3)c2c1` [Example 33, N-(1-Benzyl-2-(pyrrolidin-1-yl)-1H-imidazo[4,5-b]pyridin-6-yl)-N-methylisobutyramide], the IC50 at BRD4(1) was 300 to 3000 nM; in the test with MV4-11 cells (MV4-11 cells, 72 h incubation), 3000 to 30000 nM; with cMYC (setting [1]), 300 to 3000 nM.
As to `C[C@H](O)C(=O)N(C)c1cnc2nc(N3CCCC3)n(Cc3ccccc3)c2c1` [Example 34, (S)—N-(1-Benzyl-2-(pyrrolidin-1-yl)-1H-imidazo[4,5-b]pyridin-6-yl)-2-hydroxy-N-methylpropanamide], the IC50 at BRD4(1) is at most 300 nM; with MV4-11 cells (MV4-11 cells, 72 h incubation), 300 to 3000 nM; in the test with cMYC (setting [1]), 300 to 3000 nM.
For the compound `CN(C)C(=O)N(C)c1cnc2nc(N3CCCC3)n(Cc3ccccc3)c2c1` [Example 35, 1-(1-Benzyl-2-(pyrrolidin-1-yl)-1H-imidazo[4,5-b]pyridin-6-yl)-1,3,3-trimethylurea], the IC50 on BRD4(1) lay within 300 to 3000 nM; with MV4-11 cells (MV4-11, 72 h), 3000 to 30000 nM; in the test with cMYC (MV4-11, 3 h), 3000 to 30000 nM.
Turning to `CCOC(=O)N(C)c1cnc2nc(N3CCCC3)n(Cc3ccccc3)c2c1` [Example 36, Ethyl (1-benzyl-2-(pyrrolidin-1-yl)-1H-imidazo[4,5-b]pyridin-6-yl)(methyl)carbamate], the IC50 was at most 300 nM on BRD4(1); 300 to 3000 nM in the test on MV4-11 cells (MV4-11, 72 h); 300 to 3000 nM in the test with cMYC (MV4-11, 3 h).
As to `CC(C)OC(=O)N(C)c1cnc2nc(N3CCCC3)n(Cc3ccccc3)c2c1` [Example 37, Isopropyl (1-benzyl-2-(pyrrolidin-1-yl)-1H-imidazo[4,5-b]pyridin-6-yl)(methyl)carbamate], the IC50 on BRD4(1) was 300 to 3000 nM; with MV4-11 cells (MV4-11, 72 h), 3000 to 30000 nM; in the test on cMYC (MV4-11, 3 h) it was 300 to 3000 nM.
As for `C=CC(=O)N(C)c1cnc2nc(N3CC[C@H](N(C)C)C3)n(Cc3ccccc3)c2c1` [Example 38, (S)—N-(1-Benzyl-2-(3-(dimethylamino)pyrrolidin-1-yl)-1H-imidazo[4,5-b]pyridin-6-yl)-N-methylacrylamide], the IC50 on BRD4(1) is at most 300 nM; in the test with MV4-11 cells (MV4-11 cells, 72 h incubation), 300 to 3000 nM; in the test on cMYC (setting [1]), 300 to 3000 nM.
Consider `C=CC(=O)N(C)c1cnc2nc(N3CC[C@@H](N(C)C)C3)n(Cc3ccccc3)c2c1` [Example 39, (R)—N-(1-Benzyl-2-(3-(dimethylamino)pyrrolidin-1-yl)-1H-imidazo[4,5-b]pyridin-6-yl)-N-methylacrylamide], for which the IC50 is at most 300 nM on BRD4(1); 300 to 3000 nM with MV4-11 cells (MV4-11 cells, 72 h incubation); 300 to 3000 nM with cMYC (setting [1]).
Regarding `C=CC(=O)N(C)c1cnc2nc(NC3CCN(C)CC3)n(Cc3ccccc3)c2c1` [Example 40, N-(1-Benzyl-2-((1-methylpiperidin-4-yl)amino)-1H-imidazo[4,5-b]pyridin-6-yl)-N-methylacrylamide], the IC50 is at most 300 nM at BRD4(1); 3000 to 30000 nM with MV4-11 cells (MV4-11, 72 h); 3000 to 30000 nM with cMYC (MV4-11, 3 h).
Take `C=CC(=O)N(C)c1cnc2nc(N3CC[C@@H](O)C3)n(Cc3ccccc3)c2c1` [Example 41, (R)—N-(1-Benzyl-2-(3-hydroxypyrrolidin-1-yl)-1H-imidazo[4,5-b]pyridin-6-yl)-N-methylacrylamide]: the IC50 on BRD4(1) was at most 300 nM; in the test on MV4-11 cells (MV4-11, 72 h), 3000 to 30000 nM; in the test with cMYC (MV4-11, 3 h), 3000 to 30000 nM.
As for `C=CC(=O)N(C)c1cnc2nc(N3CC(O)C3)n(Cc3ccccc3)c2c1` [Example 42, N-(1-Benzyl-2-(3-hydroxyazetidin-1-yl)-1H-imidazo[4,5-b]pyridin-6-yl)-N-methylacrylamide], the IC50 on BRD4(1) is at most 300 nM; in the test on MV4-11 cells (MV4-11, 72 h), 3000 to 30000 nM; in the test on cMYC (MV4-11, 3 h), 3000 to 30000 nM.
With `C=CC(=O)N(C)c1cnc2nc(N3CC[C@H](NC(C)=O)C3)n(Cc3ccccc3)c2c1` [Example 43, (S)—N-(2-(3-Acetamidopyrrolidin-1-yl)-1-benzyl-1H-imidazo[4,5-b]pyridin-6-yl)-N-methylacrylamide], the IC50 on BRD4(1) was at most 300 nM; in the test on MV4-11 cells (MV4-11 cells, 72 h incubation), 3000 to 30000 nM; with cMYC (setting [1]), 3000 to 30000 nM.
As for `C=CC(=O)N(C)c1cnc2nc(N3CC[C@@H](NC(C)=O)C3)n(Cc3ccccc3)c2c1` [Example 44, (R)—N-(2-(3-Acetamidopyrrolidin-1-yl)-1-benzyl-1H-imidazo[4,5-b]pyridin-6-yl)-N-methylacrylamide], the IC50 on BRD4(1) was at most 300 nM; in the test with MV4-11 cells (MV4-11 cells, 72 h incubation), 3000 to 30000 nM; in the test on cMYC (setting [1]), 300 to 3000 nM.
As to `C=CC(=O)N(C)c1cnc2nc(N3CC[C@@H](CO)C3)n(Cc3ccccc3)c2c1` [Example 45, (R)—N-(1-Benzyl-2-(3-(hydroxymethyl)pyrrolidin-1-yl)-1H-imidazo[4,5-b]pyridin-6-yl)-N-methylacrylamide], the IC50 is at most 300 nM at BRD4(1); 300 to 3000 nM in the test on MV4-11 cells (MV4-11 cells, 72 h incubation); 300 to 3000 nM in the test with cMYC (setting [1]).
In the case of `C=CC(=O)N(C)c1cnc2nc(N3CC[C@H](O)C3)n(Cc3ccccc3)c2c1` [Example 46, (S)—N-(1-Benzyl-2-(3-hydroxypyrrolidin-1-yl)-1H-imidazo[4,5-b]pyridin-6-yl)-N-methylacrylamide], the IC50 on BRD4(1) was at most 300 nM; in the test with MV4-11 cells (MV4-11 cells, 72 h incubation) it was 300 to 3000 nM; with cMYC (setting [1]) it was 300 to 3000 nM.
As to `C=CC(=O)N(C)c1cnc2nc(N3CC(N(C)C)C3)n(Cc3ccccc3)c2c1` [Example 47, N-(1-Benzyl-2-(3-(dimethylamino)azetidin-1-yl)-1H-imidazo[4,5-b]pyridin-6-yl)-N-methylacrylamide], the IC50 was at most 300 nM at BRD4(1); 3000 to 30000 nM with MV4-11 cells (MV4-11 cells, 72 h incubation); 300 to 3000 nM in the test with cMYC (setting [1]).
As to `C=CC(=O)N(C)c1cnc2nc(N3Cc4cnn(C)c4C3)n(Cc3ccccc3)c2c1` [Example 48, N-(1-Benzyl-2-(1-methylpyrrolo[3,4-c]pyrazol-5(1H,4H,6H)-yl)-1H-imidazo[4,5-b]pyridin-6-yl)-N-methylacrylamide], the IC50 at BRD4(1) is at most 300 nM; in the test on MV4-11 cells (MV4-11 cells, 72 h incubation) it was 300 to 3000 nM; with cMYC (setting [1]), 300 to 3000 nM.
